From the NIST ThermoML archive (doi:10.1021/je900333c)
Numbers after ± are expanded uncertainties.

Test: relative permittivity at zero frequency (dimensionless); mn = molality of the nth substance listed, in mol/kg
Details: 101 kPa, Liquid, dielectric constant meter

**Q.** With `NCC(=O)O` [2-aminoacetic acid] + O as the compound, how does the “relative permittivity at zero frequency” value (278.15 K, m1 = 0.1) read?
**A.** 88.4 ± 0.2

**Q.** And the “relative permittivity at zero frequency” value (278.15 K, m1 = 0.15)?
**A.** 89.5 ± 0.2

**Q.** What about the “relative permittivity at zero frequency” value (278.15 K, m1 = 0.2) of the same compound?
**A.** 90.6 ± 0.2

**Q.** And the “relative permittivity at zero frequency” value (278.15 K, m1 = 0.25)?
**A.** 91.6 ± 0.2

**Q.** And the “relative permittivity at zero frequency” value (278.15 K, m1 = 0.3)?
**A.** 92.8 ± 0.2

**Q.** And the “relative permittivity at zero frequency” value (283.15 K, m1 = 0.1)?
**A.** 86.4 ± 0.2

**Q.** And the “relative permittivity at zero frequency” value (283.15 K, m1 = 0.15)?
**A.** 87.5 ± 0.2

**Q.** What about the “relative permittivity at zero frequency” value (283.15 K, m1 = 0.2) of the same compound?
**A.** 88.6 ± 0.2

**Q.** What about the “relative permittivity at zero frequency” value (283.15 K, m1 = 0.25) of the same compound?
**A.** 89.6 ± 0.2

**Q.** And the “relative permittivity at zero frequency” value (283.15 K, m1 = 0.3)?
**A.** 90.7 ± 0.2

**Q.** What about the “relative permittivity at zero frequency” value (288.15 K, m1 = 0.1) of the same compound?
**A.** 84.5 ± 0.2

**Q.** And the “relative permittivity at zero frequency” value (288.15 K, m1 = 0.15)?
**A.** 85.6 ± 0.2

**Q.** And the “relative permittivity at zero frequency” value (288.15 K, m1 = 0.2)?
**A.** 86.6 ± 0.2

**Q.** And the “relative permittivity at zero frequency” value (288.15 K, m1 = 0.25)?
**A.** 87.6 ± 0.2

**Q.** What about the “relative permittivity at zero frequency” value (288.15 K, m1 = 0.3) of the same compound?
**A.** 88.7 ± 0.2

**Q.** What about the “relative permittivity at zero frequency” value (293.15 K, m1 = 0.1) of the same compound?
**A.** 82.6 ± 0.2

**Q.** What about the “relative permittivity at zero frequency” value (293.15 K, m1 = 0.15) of the same compound?
**A.** 83.6 ± 0.2

**Q.** And the “relative permittivity at zero frequency” value (293.15 K, m1 = 0.2)?
**A.** 84.6 ± 0.2

**Q.** What about the “relative permittivity at zero frequency” value (293.15 K, m1 = 0.25) of the same compound?
**A.** 85.6 ± 0.2

**Q.** What about the “relative permittivity at zero frequency” value (293.15 K, m1 = 0.3) of the same compound?
**A.** 86.5 ± 0.2

**Q.** And the “relative permittivity at zero frequency” value (298.15 K, m1 = 0.1)?
**A.** 80.7 ± 0.2

**Q.** And the “relative permittivity at zero frequency” value (298.15 K, m1 = 0.15)?
**A.** 81.7 ± 0.2

**Q.** What about the “relative permittivity at zero frequency” value (298.15 K, m1 = 0.2) of the same compound?
**A.** 82.6 ± 0.2

**Q.** What about the “relative permittivity at zero frequency” value (298.15 K, m1 = 0.25) of the same compound?
**A.** 83.5 ± 0.2

**Q.** And the “relative permittivity at zero frequency” value (298.15 K, m1 = 0.3)?
**A.** 84.3 ± 0.2

**Q.** And the “relative permittivity at zero frequency” value (303.15 K, m1 = 0.1)?
**A.** 78.8 ± 0.2

**Q.** And the “relative permittivity at zero frequency” value (303.15 K, m1 = 0.15)?
**A.** 79.7 ± 0.2

**Q.** What about the “relative permittivity at zero frequency” value (303.15 K, m1 = 0.2) of the same compound?
**A.** 80.6 ± 0.2

**Q.** And the “relative permittivity at zero frequency” value (303.15 K, m1 = 0.25)?
**A.** 81.4 ± 0.2

**Q.** What about the “relative permittivity at zero frequency” value (303.15 K, m1 = 0.3) of the same compound?
**A.** 82.1 ± 0.2

**Q.** What about the “relative permittivity at zero frequency” value (308.15 K, m1 = 0.1) of the same compound?
**A.** 76.9 ± 0.2

**Q.** And the “relative permittivity at zero frequency” value (308.15 K, m1 = 0.15)?
**A.** 77.8 ± 0.2

**Q.** And the “relative permittivity at zero frequency” value (308.15 K, m1 = 0.2)?
**A.** 78.5 ± 0.2

**Q.** What about the “relative permittivity at zero frequency” value (308.15 K, m1 = 0.25) of the same compound?
**A.** 79.2 ± 0.2

**Q.** And the “relative permittivity at zero frequency” value (308.15 K, m1 = 0.3)?
**A.** 79.7 ± 0.2

**Q.** What about the “relative permittivity at zero frequency” value (313.15 K, m1 = 0.1) of the same compound?
**A.** 75 ± 0.2

**Q.** And the “relative permittivity at zero frequency” value (313.15 K, m1 = 0.15)?
**A.** 75.8 ± 0.2

**Q.** What about the “relative permittivity at zero frequency” value (313.15 K, m1 = 0.2) of the same compound?
**A.** 76.4 ± 0.2

**Q.** What about the “relative permittivity at zero frequency” value (313.15 K, m1 = 0.25) of the same compound?
**A.** 77 ± 0.2

**Q.** And the “relative permittivity at zero frequency” value (313.15 K, m1 = 0.3)?
**A.** 77.2 ± 0.2
